For data set [1], the target named is T1, human MP1 (Homo sapiens, UniProt Q5JRX3).
T1 sequence (Q5JRX3 29-1037): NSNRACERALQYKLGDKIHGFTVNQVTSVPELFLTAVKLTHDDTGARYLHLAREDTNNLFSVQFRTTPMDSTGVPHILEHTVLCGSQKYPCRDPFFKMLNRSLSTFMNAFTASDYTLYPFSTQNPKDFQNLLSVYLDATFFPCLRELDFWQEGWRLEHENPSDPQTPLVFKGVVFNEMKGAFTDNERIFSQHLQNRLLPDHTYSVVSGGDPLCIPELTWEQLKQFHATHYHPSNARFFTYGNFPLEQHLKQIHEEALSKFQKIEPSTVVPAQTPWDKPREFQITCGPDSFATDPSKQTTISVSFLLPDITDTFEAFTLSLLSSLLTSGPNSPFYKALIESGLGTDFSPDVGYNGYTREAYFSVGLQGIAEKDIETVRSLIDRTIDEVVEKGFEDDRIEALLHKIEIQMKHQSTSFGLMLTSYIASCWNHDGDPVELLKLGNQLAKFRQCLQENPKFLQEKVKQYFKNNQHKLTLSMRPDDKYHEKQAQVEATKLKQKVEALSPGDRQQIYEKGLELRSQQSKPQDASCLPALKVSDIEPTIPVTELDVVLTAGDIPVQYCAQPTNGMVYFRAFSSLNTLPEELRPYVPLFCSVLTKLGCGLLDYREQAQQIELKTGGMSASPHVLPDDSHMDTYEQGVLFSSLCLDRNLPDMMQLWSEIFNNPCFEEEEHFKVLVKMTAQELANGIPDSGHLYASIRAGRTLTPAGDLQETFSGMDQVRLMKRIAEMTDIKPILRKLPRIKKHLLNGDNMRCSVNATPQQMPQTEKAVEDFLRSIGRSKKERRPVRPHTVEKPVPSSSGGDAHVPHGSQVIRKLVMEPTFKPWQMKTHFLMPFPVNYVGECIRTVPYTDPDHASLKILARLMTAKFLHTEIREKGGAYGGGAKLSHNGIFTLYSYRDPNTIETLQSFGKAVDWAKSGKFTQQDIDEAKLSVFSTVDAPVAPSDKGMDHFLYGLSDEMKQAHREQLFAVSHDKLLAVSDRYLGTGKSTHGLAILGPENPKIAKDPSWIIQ
Type of data set: biochemical. As to conditions: 27 amino acid citrate synthase presequence peptide as MP1 substrate.

The target in data set [2] is T1, human MP1. Type of data set: biochemical. As to conditions: for kcat/Km: from kcat (HPLC) and Km (alternate substrate inhibition).
Data set [3] concerns MP1 (metallopeptidase 1, mammalian pitrilysin). In words: purified recombinant human MP1.
The test system of data set [4] is MP1. Nature of the data set: 2 μg of MP1 in 25 mM Tris buffer, pH 7.5. Particulars: human.
For data set [5], the system named is protease III. Particulars: cited from earlier work.
Data set [6] relates to insulysin. Particulars: cited from earlier work.
Data set [7] has as its system nardilysin. Particulars: cited from earlier work.

“Also recorded” adds a separate entry of the source.

What is called Km is the substrate concentration at which the rate is half of its maximum. Usually kcat stands for the maximal rate divided by the concentration of active sites. Turning to “MALLTAAARLFGAKNASCLVLAARHAS-NH2 [citrate synthase presequence peptide]”, in data set [1], the Km came out at 0.17 µM. In data set [2] (27 amino acid citrate synthase presequence peptide as MP1 substrate), the kcat came out at 0.0183 s⁻¹. Regarding “DAEFRHDSGYEVHHQKLVFF▼AEDVGSNKGAIIGL↓MVGGVV [β-Amyloid (1–40)]”, the kcat/Km in data set [2] is reported as 19.5 ± 1.1 M × min^−1 × 10^5. For the substance YGGFL, in data set [3], the cleaved bond entry was “Y-G, first_seen”. In the case of Somatostatin, the kcat/Km in data set [2] came to 41.7 ± 3.8 M × min^−1 × 10^5. On to YADAIFTNSYRKVLGQLSARKLQDIMQQGESNQERGA, for which the cleaved bond result in data set [3] was “Y-A, minor; also recorded: G-Q, first_seen; also recorded: S-A, first_seen”. Turning to “CGNLSTC▼MLG▼TYTQDFNK↓FHTFPQTAIGVGAP [Calcitonin]”, in data set [2], the kcat/Km was determined as 15.4 ± 0.6 M × min^−1 × 10^5.

For the substance Y↓GGFLRR↓IRP▼KLKWDNQ [Dynorphin A], the kcat/Km in data set [2] is on record as 62.6 ± 6.8 M × min^−1 × 10^5. For Y↓GGFLRRQF↓K▼VVT [Dynorphin B], the kcat/Km in data set [2] came out at 46.3 ± 6.8 M × min^−1 × 10^5.

In the case of YGGFMTSEKSETPLVTLFKNAIIKNAYKKGE, the cleaved bond result in data set [4] is listed as “Phe-M, minor; also recorded: Thr16-Leu17, minor; also recorded: Pro13-Leu14, minor; also recorded: Leu14-Val15, minor”.

For the substance SLRRSSCFGGRMDRIGAQSGLGCNSFRY, the cleaved bond result in data set [3] is “D-R, first_seen; also recorded: S-F, first_seen”.

In the case of “Y↓ADAIFTNSYRKVLG▼QLS▼ARKL↓QDIMQQGESNQERGA [Growth Hormone Releasing factor]”, the kcat/Km in data set [2] came to 29.4 ± 3.4 M × min^−1 × 10^5. As for YGGFL [Leu-enkephalin], the kcat/Km in data set [2] was found to be 18.7 ± 2.1 M × min^−1 × 10^5.

Turning to Insulin, the kcat/Km in data set [2] was 0.03 ± 0.00 M × min^−1 × 10^5. Take Angiotensin I: the “cleavage by protease III” value in data set [5] is recorded as “not cleaved”. In data set [6], the cleavage by insulysin result is listed as “not cleaved”. Besides, the kcat/Km in data set [2] is listed as 44.6 ± 4.3 M × min^−1 × 10^5. For the same substance, in data set [7], the cleavage by nardilysin result was “not cleaved”. Consider YGGFLRRQFKVVT, for which the cleaved bond entry in data set [3] is recorded as “Y-G, minor; also recorded: F-K, minor; also recorded: K-V, first_seen”.

Take RPKPQQF↓FG▼LM [Substance P]: in data set [2], the kcat/Km came out at 23.6 ± 2.5 M × min^−1 × 10^5. For the substance “Y↓GGFLRRQFK↓VVT↓RSQED▼PNAYYEEL▼FDV [Leumorphin (porcine), Leumorphin]”, in data set [2], the kcat/Km came out at 63.5 ± 4.5 M × min^−1 × 10^5. Turning to RPKPQQFFGLM, in data set [3], the cleaved bond entry is reported as “F-F, minor; also recorded: G-L, first_seen”.

CGNLSTCMLGTYTQDFNKFHTFPQTAIGVGAP: in data set [3], the cleaved bond result is “C-M, first_seen; also recorded: G-T, first_seen; also recorded: K-F, minor”.

In the case of “YGG↓F↓MTSEKSETPLV↓T↓L▼FKNA▼IIKNAYKKGE [β-endorphin]”, in data set [2], the kcat/Km was 62.6 ± 5.1 M × min^−1 × 10^5.

As for “SLRRSSCFGGRMD▼RIGAQSGLGCNS▼FRY (disulfide) [Atrial natriuretic peptide]”, in data set [2], the kcat/Km is on record as 199.2 ± 18.6 M × min^−1 × 10^5. Consider YGGFLRRIRPKLKWDNQ, for which the cleaved bond entry in data set [3] is given as “R-I, minor; also recorded: P-K, first_seen; also recorded: Y-G, minor”. RPPG▼FSPFR [Bradykinin]: the “cleavage by protease III” value in data set [5] is on record as “not cleaved”. For the same substance, in data set [6], the cleavage by insulysin entry was “not cleaved”. Also, the kcat/Km in data set [2] is listed as 21.8 ± 1.2 M × min^−1 × 10^5. Also, in data set [7], the cleavage by nardilysin entry is “not cleaved”.
